According to patent US9522881B2, “Hydroxyindole carboxylic acid based inhibitors for oncogenic Src homology-2 domain containing protein tyrosine phosphatase-2 (SHP2)” (Indiana University Research and Technology Corporation, priority 2013, dated 2016):

Biological target: SHP2 (Homo sapiens (Human), UniProt Q06124)
Assay: SHP2-catalyzed hydrolysis of p-nitrophenyl phosphate (pNPP)
Format: biochemical
Settings: for IC50: pNPP substrate, pH 7.0, 25° C.
Protocol: Libraries 11a-d were screened at ˜5 μM for SHP2 inhibitors without further purification. The ability of the library components to inhibit the SHP2-catalyzed hydrolysis of p-nitrophenyl phosphate (pNPP) was evaluated at pH 7.0 and 25° C. More particularly, the phosphatase activity of SHP2 was assayed using p-nitrophenyl phosphate (pNPP) as a substrate at 25° C. in 50 mM 3,3-dimethylglutarate buffer, pH 7.0, containing 1 mM EDTA with an ionic strength of […] adjusted by NaCl. The libraries were screened in a 96-well format at 5 μM compound concentration. […] The nonenzymatic hydrolysis of pNPP was corrected by measuring the control without the addition of enzyme. The amount of product p-nitrophenol was determined from the absorbance at 405 nm detected by a Spectra MAX340 microplate spectrophotometer (Molecular Devices, Sunnyvale, Calif.) using a molar extinction coefficient of 18,000 M^−1 cm^−1. […] IC50 values for selected resynthesized and purified hits were calculated by fitting the absorbance at 405 nm versus inhibitor concentration to the following equation: AI/A0=IC50/(IC50+[I]) where AI is the absorbance at 405 nm of the sample in the presence of the inhibitor; A0 is the absorbance at 405 nm in the absence of inhibitor; and [I] is the concentration of the inhibitor.

Chain of SHP2 (Q06124 whole entry, looked up): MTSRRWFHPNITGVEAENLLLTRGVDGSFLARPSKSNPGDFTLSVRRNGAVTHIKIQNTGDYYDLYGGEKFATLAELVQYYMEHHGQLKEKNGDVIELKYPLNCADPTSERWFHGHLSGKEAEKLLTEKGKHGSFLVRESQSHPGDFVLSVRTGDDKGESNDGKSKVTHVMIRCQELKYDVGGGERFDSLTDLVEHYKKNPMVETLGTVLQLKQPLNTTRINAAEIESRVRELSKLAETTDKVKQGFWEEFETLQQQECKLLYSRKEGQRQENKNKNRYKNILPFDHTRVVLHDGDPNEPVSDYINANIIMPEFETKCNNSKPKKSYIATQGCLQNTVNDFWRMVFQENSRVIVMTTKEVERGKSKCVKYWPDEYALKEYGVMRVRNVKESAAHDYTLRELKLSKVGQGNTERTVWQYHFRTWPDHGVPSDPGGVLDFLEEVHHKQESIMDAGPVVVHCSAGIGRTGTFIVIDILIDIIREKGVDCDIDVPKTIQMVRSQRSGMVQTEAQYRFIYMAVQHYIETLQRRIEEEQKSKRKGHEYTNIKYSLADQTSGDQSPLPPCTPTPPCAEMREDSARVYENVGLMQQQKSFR

| Compound | IC50 [nM] | SHP2 inhibition, in words |
| --- | --- | --- |
| CCCN(CC1CC1)C(=O)CCC(=O)Nc1cccc(-c2c(I)c3cc(C(=O)O)c(O)cc3n2C)c1 [11c-10, 2-(3-(4-((cyclopropylmethyl)(propyl)amino)-4-oxobutanamido)phenyl)-6-hydroxy-3-iodo-1-methyl-1H-indole-5-carboxylic acid] | > 20000 |  |
| Cn1c(-c2cccc(NC(=O)C(=O)Nc3ccccc3-c3ccc(CO)o3)c2)c(I)c2cc(C(=O)O)c(O)cc21 [11a-23, 6-hydroxy-2-(3-(2-((2-(5-(hydroxymethyl)furan-2-yl)phenyl)amino)-2-oxoacetamido)phenyl)-3-iodo-1-methyl-1H-indole-5-carboxylic acid] | 370 ± 10 |  |
| Cn1c(-c2cccc(NC(=O)C(=O)Nc3cccc(OCc4ccccc4)c3)c2)c(I)c2cc(C(=O)O)c(O)cc21 [11a-6, 2-(3-(2-((3-(benzyloxy)phenyl)amino)-2-oxoacetamido)phenyl)-6-hydroxy-3-iodo-1-methyl-1H-indole-5-carboxylic acid] | 860 ± 140 | submicromolar |
| Cn1c(-c2cccc(NC(=O)CCC(=O)Nc3nccs3)c2)c(I)c2cc(C(=O)O)c(O)cc21 [11c-11, 6-hydroxy-3-iodo-1-methyl-2-(3-(4-oxo-4-(thiazol-2-ylamino)butanamido)phenyl)-1H-indole-5-carboxylic acid] | 26000 ± 5000 |  |
| Cn1c(-c2cccc(NC(=O)C(=O)Nc3cccc(Cl)c3)c2)c(I)c2cc(C(=O)O)c(O)cc21 [11a-11, 2-(3-(2-((3-chlorophenyl)amino)-2-oxoacetamido)phenyl)-6-hydroxy-3-iodo-1-methyl-1H-indole-5-carboxylic acid] | 1460 ± 450 |  |
| Cn1c(-c2cccc(NC(=O)C(=O)Nc3ccc(-c4ccc(C#N)cc4)cc3)c2)c(I)c2cc(C(=O)O)c(O)cc21 [11a-21, 2-(3-(2-((4′-cyano-[1,1′-biphenyl]-4-yl)amino)-2-oxoacetamido)phenyl)-6-hydroxy-3-iodo-1-methyl-1H-indole-5-carboxylic acid] | 220 ± 10 |  |
| Cn1c(-c2cccc(NC(=O)C(=O)Nc3cccc(OC(F)(F)F)c3)c2)c(I)c2cc(C(=O)O)c(O)cc21 [11a-17, 6-hydroxy-3-iodo-1-methyl-2-(3-(2-oxo-2-((3-(trifluoromethoxy)phenyl)amino)acetamido)phenyl)-1H-indole-5-carboxylic acid] | 2390 ± 150 |  |
| Cn1c(-c2cccc(NC(=O)CCC(=O)Nc3cccc(-c4ccccc4)c3)c2)c(I)c2cc(C(=O)O)c(O)cc21 [11c-5, 2-(3-(4-([1,1′-biphenyl]-3-ylamino)-4-oxobutanamido)phenyl)-6-hydroxy-3-iodo-1-methyl-1H-indole-5-carboxylic acid] | 5300 ± 900 |  |
| Cn1c(-c2cccc(NC(=O)CCC(=O)Nc3ccc(OC(F)(F)F)cc3)c2)c(I)c2cc(C(=O)O)c(O)cc21 [11c-7, 6-hydroxy-3-iodo-1-methyl-2-(3-(4-oxo-4-((4-(trifluoromethoxy)phenyl)amino)butanamido)phenyl)-1H-indole-5-carboxylic acid] | 8600 ± 2300 |  |
| CC(C)c1ccc(NC(=O)CCC(=O)Nc2cccc(-c3c(I)c4cc(C(=O)O)c(O)cc4n3C)c2)cc1 [11c-8, 6-hydroxy-3-iodo-2-(3-(4-((4-isopropylphenyl)amino)-4-oxobutanamido)phenyl)-1-methyl-1H-indole-5-carboxylic acid] | 10700 ± 2400 |  |
| Cn1c(-c2cccc(NC(=O)C(=O)Nc3ccc(Cl)c(C(F)(F)F)c3)c2)c(I)c2cc(C(=O)O)c(O)cc21 [11a-13, 2-(3-(2-((4-chloro-3-(trifluoromethyl)phenyl)amino)-2-oxoacetamido)phenyl)-6-hydroxy-3-iodo-1-methyl-1H-indole-5-carboxylic acid] | 1760 ± 80 |  |
| Cn1c(-c2cccc(NC(=O)C(=O)Nc3ccc(I)cc3)c2)c(I)c2cc(C(=O)O)c(O)cc21 [11a-8, 6-hydroxy-3-iodo-2-(3-(2-((4-iodophenyl)amino)-2-oxoacetamido)phenyl)-1-methyl-1H-indole-5-carboxylic acid] | 1200 ± 210 |  |
